Laboratory results taken from publication PMC6561471 (The Lancet. Oncology, 2018).
“Also recorded” adds a separate entry of the source.

Assays:
[1] = test system: patients with recurrent or metastatic HNSCC; test: phase 1b dose escalation; format: in vivo; conditions: with fixed dose of cetuximab; doses 200-800 mg/day; assessed in cycle 1
[2] = suspension formulation compared with tablet; cited from earlier work
nasopharyngeal cancer = conditions: pazopanib tablet formulation 800 mg/day, monotherapy; cited from earlier work
[3] = test system: patients with recurrent or metastatic HNSCC; test: adverse events graded by NCI-CTCAE version 4.0, all cycles of treatment
[4] = test system: recurrent or metastatic HNSCC; conditions: single-arm study; cited from earlier work
[5] = test system: recurrent or metastatic HNSCC; conditions: first-line treatment; cited from earlier work

For `Cc1ccc(Nc2nccc(N(C)c3ccc4c(C)n(C)nc4c3)n2)cc1S(N)(=O)=O` [pazopanib], the “maximum tolerated dose of pazopanib” value [1] is given as “not reached”, the “decrease of time taken to reach Cmax (Tmax)” value [2] is given as 50% and the “increase of area under the curve (AUC)(0–72 h)” value [2] is given as 33%. The “increase of maximum plasma concentration (Cmax)” value [2] was 29%, the “disease control, patients” value (nasopharyngeal cancer) was 55% and the “grade 4 adverse events attributable to pazopanib” value ([3]; all 31 patients) was “no grade 4 adverse events”. For the same molecule, the “most common grade 3 adverse events attributable to pazopanib” value ([3]; all cycles) was “hypertension, anaemia, fatigue, hypoalbuminaemia, and venous thromboembolism; also recorded: hypertension, anaemia, fatigue, hypoalbuminaemia, neutropenia, and diarrhoea”.

For `CNC(=O)c1cc(Oc2ccc(NC(=O)Nc3ccc(Cl)c(C(F)(F)F)c3)cc2)ccn1` [sorafenib], the activity as monotherapy [4] is listed as “modest activity”.

In the case of bevacizumab, the “effect of addition of bevacizumab to chemotherapy” value [5] is listed as “improvement of progression-free survival and overall survival”.

For `CCN(CC)CCNC(=O)c1c(C)[nH]c(/C=C2\C(=O)Nc3ccc(F)cc32)c1C` [sunitinib], the activity as monotherapy [4] is listed as “modest activity”.
